Where two headings read alike, the source gives them in different places.
Tests used:
[1] = tested on: full-length EcDos; settings: pH 8; cited from earlier work
[2] = tested on: ferrous EcDosH; settings: cited from earlier work
[3] = molecular target: ferric EcDosH (Escherichia coli, UniProt P76129)
[4] = tested on: EcDosH; settings: cited from earlier work
[5] = tested on: EcDos; settings: cited from earlier work

Sequence of ferric EcDosH (P76129 1-139): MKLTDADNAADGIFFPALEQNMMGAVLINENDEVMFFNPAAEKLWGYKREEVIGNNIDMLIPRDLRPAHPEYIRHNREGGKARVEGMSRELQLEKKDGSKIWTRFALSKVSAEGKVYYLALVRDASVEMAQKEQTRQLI

Question: What does the source list for `[C-]#[O+]` [CO]?
Answer: association rate constant [1]: 810 M⁻¹ s⁻¹; association rate constant ([2]; pH 7): 1100 M⁻¹ s⁻¹; association rate constant ([2]; pH 8): 7800 M⁻¹ s⁻¹

Question: With `OO` [H2O2, hydrogen peroxide] as the compound, how does the “effect on the heme at high hydrogen peroxide concentrations” value [3] read?
Answer: Its value is “oxidative degradation of the heme is observed”.

Question: Which results are given for `O=O` [O2]?
Answer: association rate constant [1]: 1900 M⁻¹ s⁻¹; association rate constant ([2]; pH 7): 2600 M⁻¹ s⁻¹; association rate constant ([2]; pH 8): 31000 M⁻¹ s⁻¹

Question: Which affinity for binding [4] does the source give for `[N-]=[N+]=[N-]` [azide] here?
Answer: Its affinity for binding is “very low affinities”.

Question: And the affinity for binding [5]?
Answer: Its affinity for binding is “very low affinities”.

Question: Which affinity for binding [4] does the source give for `F` [fluoride] here?
Answer: Its affinity for binding is “very low affinities”.

Question: What about the affinity for binding [5] of the same compound?
Answer: Its affinity for binding is “very low affinities”.

Question: For `c1c[nH]cn1` [imidazole], which affinity for binding [4] is on record?
Answer: Its affinity for binding is “very low affinities”.

Question: And the affinity for binding [5]?
Answer: Its affinity for binding is “very low affinities”.

— PMC2586329 (Biochemistry, 2008)
